Test results taken from patent US6469004B1, “Benzoheterocycles and their uses as MEK inhibitors” (Warner-Lambert Company, priority 1999, dated 2002).
Structures can show the parent of a compound that is named as a salt. Where two headings read alike, the source gives them in different places.

What was measured:
colon 26 cells = colon 26 cells IC50 (whole cell assay); type: cell-based; settings: Mus musculus
Procedure: Whole Cell MAP Kinase Assay
To determine if compounds block activation of MAP kinase in whole cells, the following protocol is used. Cells are plated in multi-well plates and grown to confluence. Cells are serum-deprived overnight. […] After a 5-minute treatment with the growth factor, cells are washed with PBS, and lysed in a buffer consisting of 70 mM NaCl, 10 mM HEPES (pH 7.4), 50 mM glycerol phosphate, and 1% Triton X-100. Lysates are clarified by centrifugation at 13,000×g for 10 minutes. Five to fifteen micrograms of protein from the resulting supernatants are subjected to SDS/PAGE and Western blotting for phosphorylated MAP kinase levels.

[1] = target: GST-MEK (p45MEK) / GST-MAPK (p44MAP kinase) cascade (APK) (Homo sapiens, UniProt Q02750); assay: APK IC50 (cascade assay for inhibitors of the MAP kinase pathway); type: biochemical
Sequence of GST-MEK (p45MEK) / GST-MAPK (p44MAP kinase) cascade (APK) (Q02750 whole entry): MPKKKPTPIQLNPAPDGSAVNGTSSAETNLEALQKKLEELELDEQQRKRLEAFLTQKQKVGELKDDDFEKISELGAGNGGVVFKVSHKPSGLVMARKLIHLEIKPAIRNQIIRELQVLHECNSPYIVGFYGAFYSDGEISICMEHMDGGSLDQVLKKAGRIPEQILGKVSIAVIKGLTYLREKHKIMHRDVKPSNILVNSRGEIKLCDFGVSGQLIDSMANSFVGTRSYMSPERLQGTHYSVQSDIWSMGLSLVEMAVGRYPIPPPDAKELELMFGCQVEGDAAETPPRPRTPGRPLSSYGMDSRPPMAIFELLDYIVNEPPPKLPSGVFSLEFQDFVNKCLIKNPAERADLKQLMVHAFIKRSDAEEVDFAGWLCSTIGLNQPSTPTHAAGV
Procedure: Cascade Assay for Inhibitors of the MAP Kinase Pathway
Incorporation of ^32P into myelin basic protein (MBP) is assayed in the presence of a glutathione S-transferase fusion protein containing p44MAP kinase (GST-MAPK) and a glutathione S-transferase fusion protein containing p45MEK (GST-MEK). The assay solution contains 20 mM HEPES, pH 7.4, 10 mM MgCl2, 1 mM EGTA, 50 μM [γ-^32P]ATP, 10 μg GST-MEK, 0.5 μg GST-MAPK and 40 μg MBP in a final volume of 100 μL. Reactions are stopped after 20 minutes by addition of trichloroacetic acid and filtered through a GFIC filter mat. ^32P retained on the filter mat is determined using a 120S Betaplate. Compounds are assessed at 10 μM for ability to inhibit incorporation of 32P.
To ascertain whether compounds are inhibiting GST-MEK or GST MAPK, two additional protocols are employed. In the first protocol, compounds are added to tubes containing GST-MEK, followed by addition of GST-MAPK, MBP and [γ-^32P]ATP. In the second protocol, compounds are added to tubes containing both GST-MEK and GST-MAPK, followed by MBP and [γ-^32P]ATP.
Compounds that show activity in both protocols are scored as MAPK inhibitors, while compounds showing activity in only the first protocol are scored as MEK inhibitors.

melting point | IC50 (colon 26 cells; read-out: colon 26 cells, IC50) [nM] | IC50 [1] [nM] | IC50 (colon 26 cells; read-out: Colon 26 Cells, 1 Hour Pretreatment, IC50) [nM] | SMILES
168 to 172 °C | – | – | – | Cc1cc(I)ccc1Nc1c(C(=O)NOCC2CC2)cc2nc[nH]c2c1F (as salt: salt) [PD 254552, 7-fluoro-6-(4-iodo-2-methyl-phenylamino)-1H-benzoimidazole-5-carboxylic acid cyclopropylmethoxy-amide]
247 to 248 °C (dec.) | > 10000 | – | – | Cc1cc(I)ccc1Nc1c(C(=O)O)cc2nc[nH]c2c1F [PD 205293, 7-fluoro-6-(4-iodo-2-methyl-phenylamino)-1H-benzoimidazole-5-carboxylic acid]
– | – | 120 | – | Cc1cc(I)ccc1Nc1c(C(=O)Oc2c(F)c(F)c(F)c(F)c2F)cc2nc[nH]c2c1F [PD 254551, 7-fluoro-6-(4-iodo-2-methyl-phenylamino)-1H-benzoimidazole-5-carboxylic acid pentafluorophenyl ester]
– | – | < 10 | 20 | Cc1cc(I)ccc1Nc1c(C(=O)NOCC2CC2)cc2nc[nH]c2c1F [PD 254552, 7-fluoro-6-(4-iodo-2-methyl-phenylamino)-1H-benzoimidazole-5-carboxylic acid cyclopropylmethoxy-amide]
